From ChEMBL document CHEMBL1201862, “PubChem BioAssay data set” (2004)
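All cell lines were grown in 96-well plates and treated with compound for 48 hours. Here, GI50 denotes the concentration required for 50% inhibition of growth.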 Activity calls are given as the source filed them. No stated cut-off is given here; in the data, active = GI50 up to about 1.1 µM and inactive = higher.

What was measured:
Assay in all cases: NCI tumour cell line growth inhibition, 48 h
HL-60 = system: HL-60
OVCAR-3 = system: OVCAR-3
UACC-257 = system: UACC-257
SF-539 = system: SF-539
HOP-92 = system: HOP-92
UACC-62 = system: UACC-62
HT-29 = system: HT-29
DMS-273 = system: DMS-273
RPMI-8226 = system: RPMI-8226
M19-MEL = system: M19-MEL
NCI-H522 = system: NCI-H522
RXF 631 = system: RXF 631
ACHN = system: ACHN
TK-10 = system: TK-10
A549 = system: A549
SF-268 = system: SF-268
HCT-116 = system: HCT-116
SF-295 = system: SF-295
XF498 = system: XF498
OVCAR-5 = system: OVCAR-5
SK-MEL-5 = system: SK-MEL-5
SN12C = system: SN12C
Malme-3M = system: Malme-3M
RXF 393 = system: RXF 393
SNB-75 = system: SNB-75
DLD-1 = system: DLD-1
U-251 = system: U-251
SNB-19 = system: SNB-19
MOLT-4 = system: MOLT-4
OVCAR-8 = system: OVCAR-8
EKVX = system: EKVX
K562 = system: K562
NCI-H460 = system: NCI-H460
786-0 = system: 786-0
IGROV-1 = system: IGROV-1
SK-MEL-2 = system: SK-MEL-2
HOP-62 = system: HOP-62
SW-620 = system: SW-620
HCC 2998 = system: HCC 2998
OVCAR-4 = system: OVCAR-4
SNB-78 = system: SNB-78
COLO 205 = system: COLO 205
M14 = system: M14
NCI-H23 = system: NCI-H23
KM-20L2 = system: KM-20L2
HCT-15 = system: HCT-15
UO-31 = system: UO-31
SK-MEL-28 = system: SK-MEL-28
KM12 = system: KM12
CCRF-CEM = system: CCRF-CEM
NCI-H226 = system: NCI-H226
HOP-18 = system: HOP-18
SR = system: SR
SK-OV-3 = system: SK-OV-3
LXFL 529 = system: LXFL 529
A498 = system: A498
CAKI-1 = system: CAKI-1
DMS-114 = system: DMS-114

Question: With O=C1c2ccccc2-c2cccc3ccc(Cc4ccc5ccccc5c4)c1c23 as the compound, how does the GI50 (HL-60) read?
Answer: The GI50 was > 100 µM (inactive).

Question: What about the GI50 (OVCAR-3) of the same compound?
Answer: Its GI50 is > 100 µM (inactive).

Question: And the GI50 (UACC-257)?
Answer: The GI50 was > 100 µM (inactive).

Question: And the GI50 (SF-539)?
Answer: The GI50 was > 100 µM (inactive).

Question: What about the GI50 (HOP-92) of the same compound?
Answer: Its GI50 is 49.4 µM (inactive).

Question: What about the GI50 (UACC-62) of the same compound?
Answer: The GI50 was > 100 µM (inactive).

Question: What about the GI50 (HT-29) of the same compound?
Answer: Its GI50 is > 100 µM (inactive).

Question: What about the GI50 (DMS-273) of the same compound?
Answer: Its GI50 is 88.3 µM (inactive).

Question: What about the GI50 (RPMI-8226) of the same compound?
Answer: The GI50 was > 100 µM (inactive).

Question: What about the GI50 (M19-MEL) of the same compound?
Answer: The GI50 was > 100 µM (inactive).

Question: And the GI50 (NCI-H522)?
Answer: Its GI50 is 15.6 µM (inactive).

Question: And the GI50 (RXF 631)?
Answer: Its GI50 is > 100 µM (inactive).

Question: And the GI50 (ACHN)?
Answer: Its GI50 is > 100 µM (inactive).

Question: What about the GI50 (TK-10) of the same compound?
Answer: Its GI50 is > 100 µM (inactive).

Question: And the GI50 (A549)?
Answer: Its GI50 is > 100 µM (inactive).

Question: And the GI50 (SF-268)?
Answer: Its GI50 is > 100 µM (inactive).

Question: What about the GI50 (HCT-116) of the same compound?
Answer: Its GI50 is > 100 µM (inactive).

Question: And the GI50 (SF-295)?
Answer: The GI50 was > 100 µM (inactive).

Question: And the GI50 (XF498)?
Answer: The GI50 was 30.3 µM (inactive).

Question: And the GI50 (OVCAR-5)?
Answer: The GI50 was > 100 µM (inactive).

Question: And the GI50 (SK-MEL-5)?
Answer: Its GI50 is > 100 µM (inactive).

Question: And the GI50 (SN12C)?
Answer: Its GI50 is > 100 µM (inactive).

Question: What about the GI50 (Malme-3M) of the same compound?
Answer: Its GI50 is > 100 µM (inactive).

Question: And the GI50 (RXF 393)?
Answer: The GI50 was 48.2 µM (inactive).

Question: And the GI50 (SNB-75)?
Answer: The GI50 was 26.4 µM (inactive).

Question: What about the GI50 (DLD-1) of the same compound?
Answer: Its GI50 is > 100 µM (inactive).

Question: And the GI50 (U-251)?
Answer: Its GI50 is 98.2 µM (inactive).

Question: What about the GI50 (SNB-19) of the same compound?
Answer: The GI50 was > 100 µM (inactive).

Question: What about the GI50 (MOLT-4) of the same compound?
Answer: The GI50 was > 100 µM (inactive).

Question: And the GI50 (OVCAR-8)?
Answer: The GI50 was > 100 µM (inactive).

Question: And the GI50 (EKVX)?
Answer: Its GI50 is > 100 µM (inactive).

Question: And the GI50 (K562)?
Answer: The GI50 was 29.4 µM (inactive).

Question: And the GI50 (NCI-H460)?
Answer: The GI50 was > 100 µM (inactive).

Question: And the GI50 (786-0)?
Answer: Its GI50 is 76.6 µM (inactive).

Question: What about the GI50 (IGROV-1) of the same compound?
Answer: The GI50 was > 100 µM (inactive).

Question: What about the GI50 (SK-MEL-2) of the same compound?
Answer: Its GI50 is > 100 µM (inactive).

Question: And the GI50 (HOP-62)?
Answer: Its GI50 is > 100 µM (inactive).

Question: What about the GI50 (SW-620) of the same compound?
Answer: The GI50 was > 100 µM (inactive).

Question: What about the GI50 (HCC 2998) of the same compound?
Answer: Its GI50 is > 100 µM (inactive).

Question: What about the GI50 (OVCAR-4) of the same compound?
Answer: The GI50 was > 100 µM (inactive).

Question: What about the GI50 (SNB-78) of the same compound?
Answer: The GI50 was > 100 µM (inactive).

Question: And the GI50 (COLO 205)?
Answer: The GI50 was > 100 µM (inactive).

Question: And the GI50 (M14)?
Answer: Its GI50 is > 100 µM (inactive).

Question: And the GI50 (NCI-H23)?
Answer: Its GI50 is > 100 µM (inactive).

Question: What about the GI50 (KM-20L2) of the same compound?
Answer: Its GI50 is > 100 µM (inactive).

Question: What about the GI50 (HCT-15) of the same compound?
Answer: The GI50 was over 100 µM.

Question: And the GI50 (UO-31)?
Answer: The GI50 was > 100 µM (inactive).

Question: What about the GI50 (SK-MEL-28) of the same compound?
Answer: Its GI50 is > 100 µM (inactive).

Question: What about the GI50 (KM12) of the same compound?
Answer: Its GI50 is > 100 µM (inactive).

Question: And the GI50 (CCRF-CEM)?
Answer: Its GI50 is > 100 µM (inactive).

Question: Which GI50 (HL-60) does the source give for ClC[Si]12OCCN(CCO1)CCO2 here?
Answer: Its GI50 is > 100 µM (inactive).

Question: What about the GI50 (OVCAR-3) of the same compound?
Answer: Its GI50 is > 100 µM (inactive).

Question: And the GI50 (UACC-257)?
Answer: Its GI50 is > 100 µM (inactive).

Question: And the GI50 (SF-539)?
Answer: The GI50 was > 100 µM (inactive).

Question: And the GI50 (HOP-92)?
Answer: Its GI50 is > 100 µM (inactive).

Question: What about the GI50 (NCI-H226) of the same compound?
Answer: The GI50 was > 100 µM (inactive).

Question: And the GI50 (UACC-62)?
Answer: Its GI50 is > 100 µM (inactive).

Question: What about the GI50 (HT-29) of the same compound?
Answer: Its GI50 is > 100 µM (inactive).

Question: And the GI50 (DMS-273)?
Answer: Its GI50 is > 100 µM (inactive).

Question: And the GI50 (RPMI-8226)?
Answer: The GI50 was > 100 µM (inactive).

Question: What about the GI50 (NCI-H522) of the same compound?
Answer: The GI50 was > 100 µM (inactive).

Question: What about the GI50 (RXF 631) of the same compound?
Answer: The GI50 was > 100 µM (inactive).

Question: What about the GI50 (ACHN) of the same compound?
Answer: Its GI50 is > 100 µM (inactive).

Question: What about the GI50 (TK-10) of the same compound?
Answer: The GI50 was > 100 µM (inactive).

Question: What about the GI50 (A549) of the same compound?
Answer: Its GI50 is > 100 µM (inactive).

Question: And the GI50 (SF-268)?
Answer: Its GI50 is > 100 µM (inactive).

Question: And the GI50 (HCT-116)?
Answer: Its GI50 is > 100 µM (inactive).

Question: What about the GI50 (SF-295) of the same compound?
Answer: Its GI50 is > 100 µM (inactive).

Question: And the GI50 (HOP-18)?
Answer: The GI50 was > 100 µM (inactive).

Question: What about the GI50 (OVCAR-5) of the same compound?
Answer: Its GI50 is > 100 µM (inactive).

Question: And the GI50 (SK-MEL-5)?
Answer: Its GI50 is > 100 µM (inactive).

Question: And the GI50 (SN12C)?
Answer: Its GI50 is > 100 µM (inactive).

Question: What about the GI50 (Malme-3M) of the same compound?
Answer: Its GI50 is > 100 µM (inactive).

Question: What about the GI50 (RXF 393) of the same compound?
Answer: Its GI50 is > 100 µM (inactive).

Question: And the GI50 (SNB-75)?
Answer: The GI50 was > 100 µM (inactive).

Question: And the GI50 (SR)?
Answer: Its GI50 is > 100 µM (inactive).

Question: What about the GI50 (DLD-1) of the same compound?
Answer: Its GI50 is > 100 µM (inactive).

Question: What about the GI50 (U-251) of the same compound?
Answer: Its GI50 is > 100 µM (inactive).

Question: And the GI50 (SNB-19)?
Answer: The GI50 was > 100 µM (inactive).

Question: And the GI50 (MOLT-4)?
Answer: The GI50 was > 100 µM (inactive).

Question: What about the GI50 (OVCAR-8) of the same compound?
Answer: The GI50 was > 100 µM (inactive).

Question: What about the GI50 (K562) of the same compound?
Answer: Its GI50 is > 100 µM (inactive).

Question: And the GI50 (NCI-H460)?
Answer: Its GI50 is > 100 µM (inactive).

Question: What about the GI50 (786-0) of the same compound?
Answer: Its GI50 is > 100 µM (inactive).

Question: And the GI50 (IGROV-1)?
Answer: Its GI50 is > 100 µM (inactive).

Question: What about the GI50 (SK-OV-3) of the same compound?
Answer: The GI50 was > 100 µM (inactive).

Question: And the GI50 (SK-MEL-2)?
Answer: Its GI50 is > 100 µM (inactive).

Question: What about the GI50 (LXFL 529) of the same compound?
Answer: Its GI50 is > 100 µM (inactive).

Question: And the GI50 (A498)?
Answer: Its GI50 is > 100 µM (inactive).

Question: And the GI50 (SW-620)?
Answer: Its GI50 is > 100 µM (inactive).

Question: What about the GI50 (CAKI-1) of the same compound?
Answer: The GI50 was > 100 µM (inactive).

Question: What about the GI50 (HCC 2998) of the same compound?
Answer: The GI50 was > 100 µM (inactive).

Question: And the GI50 (DMS-114)?
Answer: Its GI50 is > 100 µM (inactive).

Question: What about the GI50 (SNB-78) of the same compound?
Answer: Its GI50 is > 100 µM (inactive).

Question: And the GI50 (COLO 205)?
Answer: Its GI50 is > 100 µM (inactive).

Question: What about the GI50 (NCI-H23) of the same compound?
Answer: Its GI50 is > 100 µM (inactive).

Question: What about the GI50 (UO-31) of the same compound?
Answer: Its GI50 is > 100 µM (inactive).

Question: And the GI50 (SK-MEL-28)?
Answer: Its GI50 is > 100 µM (inactive).

Question: What about the GI50 (KM12) of the same compound?
Answer: The GI50 was > 100 µM (inactive).

Question: What about the GI50 (CCRF-CEM) of the same compound?
Answer: Its GI50 is > 100 µM (inactive).
